# Test results as given in ChEMBL document CHEMBL1125151, “Aldosterone antagonists. 3. Synthesis and activities of steroidal 7 alpha-(alkoxycarbonyl)-15,16-methylene spirolactones” (1990).
# What was measured:
# [1] = target: T1, Androgen receptor (Rattus norvegicus) (UniProt P15207); test: Binding to rat prostate Androgen receptor compared to dihydrotestosterone; settings: Prostate gland
# T1 sequence (whole entry): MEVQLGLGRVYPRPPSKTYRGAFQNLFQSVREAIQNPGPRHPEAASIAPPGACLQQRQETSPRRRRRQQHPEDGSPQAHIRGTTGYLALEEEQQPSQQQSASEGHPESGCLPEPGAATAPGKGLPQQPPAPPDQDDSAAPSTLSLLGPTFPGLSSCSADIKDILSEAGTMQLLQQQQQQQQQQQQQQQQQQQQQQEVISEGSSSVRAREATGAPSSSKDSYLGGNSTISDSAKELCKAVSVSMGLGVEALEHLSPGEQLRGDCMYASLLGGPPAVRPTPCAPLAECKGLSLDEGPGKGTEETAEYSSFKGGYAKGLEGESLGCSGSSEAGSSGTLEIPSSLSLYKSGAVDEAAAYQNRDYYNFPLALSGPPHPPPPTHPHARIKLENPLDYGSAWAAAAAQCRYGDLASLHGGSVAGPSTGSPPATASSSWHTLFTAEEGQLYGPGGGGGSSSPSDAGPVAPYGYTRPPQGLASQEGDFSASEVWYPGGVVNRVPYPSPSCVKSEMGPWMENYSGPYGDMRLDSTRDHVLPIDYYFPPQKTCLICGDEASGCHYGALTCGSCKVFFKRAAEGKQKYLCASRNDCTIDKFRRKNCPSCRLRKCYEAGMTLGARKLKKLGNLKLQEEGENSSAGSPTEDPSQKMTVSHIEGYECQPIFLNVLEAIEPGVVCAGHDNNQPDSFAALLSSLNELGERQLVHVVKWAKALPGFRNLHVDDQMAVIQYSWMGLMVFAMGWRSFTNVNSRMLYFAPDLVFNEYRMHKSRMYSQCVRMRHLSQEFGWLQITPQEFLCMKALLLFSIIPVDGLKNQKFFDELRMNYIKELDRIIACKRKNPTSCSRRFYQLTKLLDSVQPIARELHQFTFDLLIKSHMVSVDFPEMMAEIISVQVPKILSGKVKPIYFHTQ
# [2] = target: T2, Progesterone receptor (Oryctolagus cuniculus) (UniProt P06186); test: Binding to rabbit uterine progesterone receptor compared to progesterone
# T2 sequence (whole entry): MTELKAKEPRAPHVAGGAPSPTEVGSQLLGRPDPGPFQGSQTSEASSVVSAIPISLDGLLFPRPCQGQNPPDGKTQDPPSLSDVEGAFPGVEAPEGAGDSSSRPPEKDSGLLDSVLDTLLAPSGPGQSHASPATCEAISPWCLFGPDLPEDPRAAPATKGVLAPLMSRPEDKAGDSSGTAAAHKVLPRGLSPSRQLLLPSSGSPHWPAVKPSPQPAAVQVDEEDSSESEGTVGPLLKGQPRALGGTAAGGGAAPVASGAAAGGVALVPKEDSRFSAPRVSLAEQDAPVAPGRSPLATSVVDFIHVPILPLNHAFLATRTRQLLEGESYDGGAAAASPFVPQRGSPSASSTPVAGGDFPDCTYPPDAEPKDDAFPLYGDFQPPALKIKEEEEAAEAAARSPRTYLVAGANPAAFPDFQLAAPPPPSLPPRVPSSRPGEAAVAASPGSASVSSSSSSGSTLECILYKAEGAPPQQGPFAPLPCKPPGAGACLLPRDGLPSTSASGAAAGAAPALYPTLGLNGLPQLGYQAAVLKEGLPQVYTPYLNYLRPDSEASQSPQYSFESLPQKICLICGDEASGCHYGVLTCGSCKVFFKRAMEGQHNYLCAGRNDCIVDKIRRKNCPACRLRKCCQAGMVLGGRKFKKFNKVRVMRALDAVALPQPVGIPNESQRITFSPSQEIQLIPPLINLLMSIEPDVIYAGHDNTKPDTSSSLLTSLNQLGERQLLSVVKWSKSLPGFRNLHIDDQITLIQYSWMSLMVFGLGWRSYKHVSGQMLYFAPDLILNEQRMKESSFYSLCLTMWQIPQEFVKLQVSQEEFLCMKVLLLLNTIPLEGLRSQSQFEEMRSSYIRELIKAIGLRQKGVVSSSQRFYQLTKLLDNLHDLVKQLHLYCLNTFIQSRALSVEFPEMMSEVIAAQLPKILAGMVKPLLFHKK
# [3] = target: T3, Mineralocorticoid receptor (Rattus norvegicus) (UniProt P22199); test: Anti-aldosterone effect on the urinary Na/K ratio in Wistar rats compared to spironolactone; type: functional; settings: Urine
# T3 sequence (whole entry): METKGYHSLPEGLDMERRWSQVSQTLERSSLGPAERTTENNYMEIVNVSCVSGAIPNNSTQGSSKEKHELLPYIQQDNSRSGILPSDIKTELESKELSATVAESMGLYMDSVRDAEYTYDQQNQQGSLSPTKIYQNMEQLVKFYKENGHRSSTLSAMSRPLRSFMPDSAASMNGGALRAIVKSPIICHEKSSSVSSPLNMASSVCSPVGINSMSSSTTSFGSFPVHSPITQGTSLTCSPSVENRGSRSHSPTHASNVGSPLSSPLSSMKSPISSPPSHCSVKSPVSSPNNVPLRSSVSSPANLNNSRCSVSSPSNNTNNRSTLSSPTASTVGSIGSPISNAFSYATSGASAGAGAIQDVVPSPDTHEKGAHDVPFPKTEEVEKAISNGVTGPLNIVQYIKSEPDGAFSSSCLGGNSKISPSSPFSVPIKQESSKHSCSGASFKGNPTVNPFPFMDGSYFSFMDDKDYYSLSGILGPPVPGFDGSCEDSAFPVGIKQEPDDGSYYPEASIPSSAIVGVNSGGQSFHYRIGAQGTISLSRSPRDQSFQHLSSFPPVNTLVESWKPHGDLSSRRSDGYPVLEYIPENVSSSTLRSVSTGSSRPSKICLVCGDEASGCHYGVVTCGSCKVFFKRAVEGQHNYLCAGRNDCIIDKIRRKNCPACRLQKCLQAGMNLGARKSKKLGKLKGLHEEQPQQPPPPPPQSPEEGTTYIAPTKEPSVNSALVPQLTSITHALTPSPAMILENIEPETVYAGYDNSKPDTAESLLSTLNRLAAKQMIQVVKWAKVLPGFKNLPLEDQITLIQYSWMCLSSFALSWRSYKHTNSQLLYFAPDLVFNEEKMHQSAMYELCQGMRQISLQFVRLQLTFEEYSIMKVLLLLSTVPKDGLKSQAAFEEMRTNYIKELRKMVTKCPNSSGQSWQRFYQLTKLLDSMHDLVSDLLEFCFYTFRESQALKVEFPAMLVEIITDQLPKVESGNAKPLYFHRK
# [4] = tested on: Rattus norvegicus; test: Ovulation inhibitory activity in rats after 100 mg oral dose; type: functional
# [5] = target: T2, Progesterone receptor (Oryctolagus cuniculus); test: Progestational activity on oral administration (100 mg) in rabbit; type: functional, organism-based
# [6] = target: T2, Progesterone receptor (Oryctolagus cuniculus); test: Progestational activity on oral administration (300 mg) in rabbit; type: functional, organism-based
# [7] = target: T2, Progesterone receptor (Oryctolagus cuniculus); test: Progestational activity on oral administration (30 mg) in rabbit; type: functional, organism-based
# [8] = target: T1, Androgen receptor (Rattus norvegicus); test: Anogenital distance in rats after 50 mg/animal oral dose in Fetal Feminization test (control = 2.30+/-0.16); type: functional
# [9] = tested on: Rattus norvegicus; test: Ovulation inhibitory activity in rats after 30 mg oral dose; type: functional
# [10] = target: T1, Androgen receptor (Rattus norvegicus); test: Weight of seminal vesicle as anti-androgenic activity in rat after oral dose of 24+0.1 mg/day with testosterone propionate(0.1 mg/day); type: functional
# [11] = target: T1, Androgen receptor (Rattus norvegicus); test: Weight of prostate as anti-androgenic activity in rat after oral dose of 12+0.1 mg/day with testosterone propionate(0.1 mg/day); type: functional; settings: Prostate gland
# [12] = target: T1, Androgen receptor (Rattus norvegicus); test: Weight of prostate as anti-androgenic activity in rat after oral dose of 24+0.1 mg/day with testosterone propionate(0.1 mg/day); type: functional; settings: Prostate gland
# [13] = target: T1, Androgen receptor (Rattus norvegicus); test: Weight of seminal vesicle as anti-androgenic activity in rat after oral dose of 12+0.1 mg/day with testosterone propionate(0.1 mg/day); type: functional
# [14] = target: T1, Androgen receptor (Rattus norvegicus); settings: Prostate gland
# Description: Weight of prostate as anti-androgenic activity in rat after oral dose of 48+0.1 mg/day with testosterone propionate(0.1 mg/day)
# [15] = target: T1, Androgen receptor (Rattus norvegicus); settings: Prostate gland; remark: listed apart in the source
# Description: Weight of prostate as anti-androgenic activity in rat after oral dose of 96+0.1 mg/day with testosterone propionate(0.1 mg/day)
# [16] = target: T1, Androgen receptor (Rattus norvegicus); settings: Seminal vesicle
# Description: Weight of seminal vesicle as anti-androgenic activity in rat after oral dose of 48+0.1 mg/day with testosterone propionate(0.1 mg/day)
# [17] = target: T1, Androgen receptor (Rattus norvegicus); settings: Seminal vesicle; remark: listed apart in the source
# Description: Weight of seminal vesicle as anti-androgenic activity in rat after oral dose of 96+0.1 mg/day with testosterone propionate(0.1 mg/day)
SMILES,Competition factor [1],Competition factor [2],Relative potency [3],other results
COC(=O)[C@@H]1CC2=CC(=O)[C@@H]3C[C@@H]3C2(C)C2CCC3(C)C(C21)[C@@H]1C[C@@H]1C31CCC(=O)O1 (stereo partly specified),29,92,140,–
COC(=O)[C@@H]1CC2=CC(=O)CCC2(C)C2CCC3(C)C(CCC34CCC(=O)O4)C21 (stereo partly specified),142,130,104,–
CC(C)OC(=O)[C@@H]1CC2=CC(=O)C=CC2(C)C2CCC3(C)C(C21)[C@@H]1C[C@@H]1C31CCC(=O)O1 (stereo partly specified),266,113,< 50,–
CC(=O)S[C@@H]1CC2=CC(=O)CC[C@]2(C)[C@H]2CC[C@@]3(C)[C@@H](CC[C@@]34CCC(=O)O4)[C@H]12 [SPIRONOLACTONE],–,–,–,Inhibition [4]: 100%
CC(C)OC(=O)[C@@H]1CC2=CC(=O)CCC2(C)C2CCC3(C)C(C21)[C@@H]1C[C@@H]1C31CCC(=O)O1 (stereo partly specified),67,12,< 50,–
COC(=O)[C@@H]1CC2=CC(=O)CCC2(C)C2CCC3(C)C(C21)[C@H]1C[C@H]1C31CCC(=O)O1 (stereo partly specified),121,10,50,–
COC(=O)[C@@H]1CC2=CC(=O)CCC2(C)C2CCC3(C)C(C21)[C@@H]1C[C@@H]1C31CCC(=O)O1 (stereo partly specified),112,25,217,McPhail index [5]: 1.8; McPhail index [6]: 1.8; McPhail index [7]: 1.4; Anogenital distance [8]: 2 mm; Inhibition [4]: 0%; Inhibition [9]: 0%; Organ weight [10]: 37 mg; Organ weight [11]: 38 mg; Organ weight [12]: 33 mg; Organ weight [13]: 44 mg; Organ weight [14]: 41 mg; Organ weight [15]: 30 mg; Organ weight [16]: 47 mg; Organ weight [17]: 42 mg

# Continued, in another order:
Competition factor [1],Competition factor [2],Relative potency [3],SMILES,other results
33,19,39,CCCOC(=O)[C@@H]1CC2=CC(=O)[C@@H]3C[C@@H]3C2(C)C2CCC3(C)C(C21)[C@@H]1C[C@@H]1C31CCC(=O)O1 (stereo partly specified),–
–,85,< 50,CCOC(=O)[C@@H]1CC2=CC(=O)C=CC2(C)C2CCC3(C)C(C21)[C@@H]1C[C@@H]1C31CCC(=O)O1 (stereo partly specified),–
28,34,187,CCOC(=O)[C@@H]1CC2=CC(=O)[C@@H]3C[C@@H]3C2(C)C2CCC3(C)C(C21)[C@@H]1C[C@@H]1C31CCC(=O)O1 (stereo partly specified),–
–,–,< 50,COC(=O)[C@@H]1CC2=CC(=O)C=CC2(C)C2CCC3(C)C(C21)[C@@H]1C[C@@H]1C31CCC(=O)O1 (stereo partly specified),–
40,19,140,CC(C)OC(=O)[C@@H]1CC2=CC(=O)[C@@H]3C[C@@H]3C2(C)C2CCC3(C)C(C21)[C@@H]1C[C@@H]1C31CCC(=O)O1 (stereo partly specified),–
53,98,140,COC(=O)[C@@H]1CC2=CC(=O)[C@@H]3C[C@@H]3C2(C)C2CCC3(C)C(C21)[C@H]1C[C@H]1C31CCC(=O)O1 (stereo partly specified),–
98,33,< 50,CCOC(=O)[C@@H]1CC2=CC(=O)CCC2(C)C2CCC3(C)C(C21)[C@@H]1C[C@@H]1C31CCC(=O)O1 (stereo partly specified),–
